Assays:
PfCelTOS [1] = format: in vivo, Plasmodium falciparum; settings: BALB/c mice; SE dose 0.5%-2% experiment; GLA- or Montanide-containing vaccines
PfCelTOS [2] = test: Antibody endpoint titers (IgG, IgG1, IgG2a) after immunization with PfCelTOS vaccine compositions; settings: BALB/c mice; SE dose 0.02%-2% experiment; GLA (SE or AF) compared to same vaccine composition without GLA
Description: On the day of immunization, the emulsion was diluted with PBS to the specified oil concentrations and mixed with antigen and GLA-AF (where applicable). […] Throughout the manuscript the emulsion dose is referred to as the % v/v of oil in the final vaccine formulation; the ratio of oil to emulsifier is kept constant at all doses.
Endpoint titer was determined using Prism (GraphPad Software, La Jolla, Calif.) following a sigmoidal fit (variable slope) of the values determined at dilution, with the endpoint titer corresponding to a cutoff value (C) determined as described previously [10] with C=X+SDf, where X is the average and SD is the standard deviation of the negative sera control plate, and f is the multiplier at the 99.9% confidence level. A cutoff value of 0.1 OD was assigned if the cutoff value as determined above was less than 0.1 OD. On rare occasions, individual plate wells registered an abnormally high reading near the highest dilutions. These were excluded from the sigmoidal fit by employing the Grubb's test on the suspect value, comparing to the 4 dilutions surrounding the dilution in question at the 99% confidence level [11].
BALB/c mice were immunized 3 times with PfCelTOS vaccine compositions with 3 weeks between injections.

## glucopyranosyl lipid adjuvant [GLA]
PfCelTOS [1]
  antibody-secreting plasma cells: Higher numbers
PfCelTOS [2]
  IgG2a response: stronger

Source: patent US11510875B2, “Adjuvant formulations comprising TLR4 agonists and methods of using the same” (priority 2012, dated 2022)
